# Data as given in US6699864B2, “Substituted phenyl-piperazine derivatives, their preparation and use” (H. Lundbeck A/S, priority 1999, dated 2004).
# Where a name gives a salt, the structure may show the parent alone.
# Assays:
# human 5-HT1A receptors = molecular target: T1, human 5-HT1A receptors (Homo sapiens, UniProt P08908); experiment: Inhibition of 3H-5-CT binding to human 5-HT1A receptors; settings: cloned human 5-HT1A receptors expressed in HeLa cells (HA7); 15 minutes at 37° C., pH 7.7
# T1 construct: expressed in transfected cells; host or cells: HeLa cells (HA7)
# T1 sequence (P08908 1-422): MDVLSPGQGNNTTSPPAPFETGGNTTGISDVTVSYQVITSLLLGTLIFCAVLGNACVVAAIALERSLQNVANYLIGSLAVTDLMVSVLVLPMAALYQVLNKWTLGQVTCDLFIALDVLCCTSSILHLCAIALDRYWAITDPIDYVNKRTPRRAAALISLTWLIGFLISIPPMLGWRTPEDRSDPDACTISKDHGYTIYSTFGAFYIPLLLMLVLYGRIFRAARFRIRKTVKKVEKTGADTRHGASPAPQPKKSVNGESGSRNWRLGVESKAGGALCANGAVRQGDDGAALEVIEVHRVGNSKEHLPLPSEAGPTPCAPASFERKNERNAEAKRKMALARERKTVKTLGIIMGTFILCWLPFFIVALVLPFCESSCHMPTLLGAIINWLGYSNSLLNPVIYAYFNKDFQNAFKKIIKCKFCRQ
# Description: The affinity of the compounds of the invention to 5-HT1A receptors was determined by measuring the inhibition of binding of a radioactive ligand at 5-HT1A receptors as described in the following test:
# Inhibition of ^3H-5-CT Binding to Human 5-HT1A Receptors.
# By this method, the inhibition by drugs of the binding of the 5-HT1A agonist ^3H-5-carboxamido tryptamine (^3H-5-CT) to cloned human 5-HT1A receptors stably expressed in transfected HeLa cells (HA7) (Fargin, A. et al, J. Biol. Chem., 1989, 264, 14848) is determined in vitro. The assay was performed as a modification of the method described by Harrington, M. A. et al, J. Pharmacol. Exp. Ther., 1994, 268, 1098. Human 5-HT1A receptors (40 μg of cell homogenate) were incubated for 15 minutes at 37° C. in 50 mM Tris buffer at pH 7.7 in the presence of ^3H-5-CT. Non-specific binding was determined by including 10 μM of metergoline. The reaction was terminated by rapid filtration through Unifilter GF/B filters on a Tomtec Cell Harvester. Filters were counted in a Packard Top Counter.
# [1] = molecular target: T2, 3H-5-HT uptake into whole rat brain synaptosomes (serotonin reuptake) (Rattus norvegicus, UniProt P31652); experiment: Inhibition of 3H-5-HT uptake into rat brain synaptosomes; type: biochemical; settings: for IC50: in vitro; for inhibition at 0.1 µM: at 100 nM
# T2 construct: whole rat brain synaptosomes; from tissue; host or cells: whole rat brain synaptosomes
# T2 sequence (P31652 whole entry): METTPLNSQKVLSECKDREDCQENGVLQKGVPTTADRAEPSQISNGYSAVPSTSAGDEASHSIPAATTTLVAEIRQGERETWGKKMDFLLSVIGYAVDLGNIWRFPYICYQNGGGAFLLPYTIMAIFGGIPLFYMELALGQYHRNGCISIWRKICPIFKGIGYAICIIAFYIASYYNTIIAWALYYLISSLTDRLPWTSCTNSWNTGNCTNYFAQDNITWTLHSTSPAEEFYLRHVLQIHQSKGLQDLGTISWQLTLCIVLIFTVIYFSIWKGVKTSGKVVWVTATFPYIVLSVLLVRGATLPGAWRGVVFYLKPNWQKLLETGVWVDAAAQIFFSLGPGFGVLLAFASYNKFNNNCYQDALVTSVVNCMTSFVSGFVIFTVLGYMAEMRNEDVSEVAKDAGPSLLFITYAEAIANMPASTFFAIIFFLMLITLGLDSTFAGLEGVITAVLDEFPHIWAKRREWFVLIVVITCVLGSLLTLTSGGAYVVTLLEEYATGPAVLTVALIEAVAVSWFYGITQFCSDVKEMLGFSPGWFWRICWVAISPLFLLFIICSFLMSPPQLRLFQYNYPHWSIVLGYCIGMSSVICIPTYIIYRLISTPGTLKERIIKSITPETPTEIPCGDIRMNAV
# Description: Inhibition of ^3H-5-HT Uptake Into Rat Brain Synaptosomes
# Using this method, the ability of drugs to inhibit the accumulation of ^3H-5-HT into whole rat brain synaptosomes is determined in vitro. The assay was performed as described by Hyttel, J., Psychopharmacology 1978, 60, 13.
Compound,melting point,IC50 (human 5-HT1A receptors),IC50 [1],inhibition at 0.1 µM [1]
"c1ccc(N2CCN(CCc3c[nH]c4ccccc34)CC2)c(Oc2ccc3c(c2)OCO3)c1 (as salt: oxalate) [Compound 1b, 1-[2-(1,3-Benzodioxolan-5-yloxy)phenyl]-4-[2-(1H-indol-3-yl)ethyl]piperazine]",221 to 228 °C,–,–,–
"Fc1ccc2[nH]cc(CCCN3CCN(c4ccccc4Oc4cccc(N5CCOCC5)c4)CC3)c2c1 [Compound 5ag, 1-{2-[3-(Morpholin-4-yl)phenoxy]phenyl}-4-[3-(5-fluoro-1H-indol-3-yl)propyl]piperazine]",–,26 nM,23 nM,–
"c1ccc(N2CCN(CCCc3c[nH]c4ccccc34)CC2)c(Oc2cccc3c2OCCO3)c1 [Compound 5ae, 1-[2-(1,4-Benzodioxan-5-yloxy)phenyl]-4-[3-(1H-indol-3-yl)propyl]piperazine]",–,26 nM,–,42%
"Fc1ccc2[nH]cc(CCCN3CCN(c4ccccc4Oc4cccc5c4OCCO5)CC3)c2c1 [Compound 5a, 1-[2-(1,4-Benzodioxan-5-Yloxy)Phenyl]-4-[3-(5-Fluoro-1H-Indol-3-Yl)Propyl]Piperazine]",–,19 nM,14 nM,–
"COc1ccccc1Oc1ccccc1N1CCN(CCCc2c[nH]c3c(F)cc(F)cc23)CC1 [Compound 5x, 1-[2-(2-Methoxyphenoxy)phenyl]-4-[3-(5,7-difluoro-1H-indol-3-yl)propyl]piperazine]",–,18 nM,33 nM,–
"c1ccc(N2CCN(CCCc3c[nH]c4ccccc34)CC2)c(Oc2ccc3c(c2)OCO3)c1 [Compound 2b, 1-[2-(1,3-Benzodioxolan-5-Yloxy)Phenyl]-4-[3-(1H-Indol-3-Yl)Propyl]Piperazine]",–,16 nM,2.8 nM,–
"COc1ccccc1Oc1ccccc1N1CCN(CCCc2c[nH]c3ccc(F)cc23)CC1 [Compound 5l, 1-[2-(2-Methoxyphenoxy)phenyl]-4-[3-(5-fluoro-1H-indol-3-yl)propyl]piperazine]",–,13 nM,4.7 nM,–
"COc1cccc(OC)c1Oc1ccccc1N1CCN(CCCc2c[nH]c3ccc(Br)cc23)CC1 [Compound 5h, 1-[2-(2,6-Dimethoxyphenoxy)phenyl]-4-[3-(5-bromo-1H-indol-3-yl)propyl]piperazine]",–,10 nM,–,55%
"Cc1ccc2[nH]cc(CCCN3CCN(c4ccccc4Oc4cccc(N(C)C)c4)CC3)c2c1 [Compound 5i, 1-(2-[3-(Dimethylamino)phenoxy]phenyl]-4-[3-(5-methyl-1H-indol-3-yl)propyl]piperazine]",–,10 nM,–,46%
"c1ccc(N2CCN(CCCc3c[nH]c4ccccc34)CC2)c(Oc2ccc3c(c2)OCO3)c1 (as salt: oxalate) [Compound 2b, 1-[2-(1,3-Benzodioxolan-5-Yloxy)Phenyl]-4-[3-(1H-Indol-3-Yl)Propyl]Piperazine]",156 to 162 °C,–,–,–
c1ccc(N2CCN(CCCCc3c[nH]c4ccccc34)CC2)c(Oc2ccc3c(c2)OCO3)c1 [Compound 3c],–,16 nM,–,27%
"c1ccc(Oc2ccccc2N2CCN(CCCc3c[nH]c4ccccc34)CC2)cc1 [Compound 5e, 1-(2-Phenoxyphenyl)-4-[3-(1H-indol-3-yl)propyl]piperazine]",–,10 nM,13 nM,–
"COc1ccccc1Oc1ccccc1N1CCN(CCCc2c[nH]c3ccc(F)cc23)CC1 (as salt: hydrochloride) [Compound 2d, 1-[2-(2-Methoxyphenoxy)Phenyl]-4-[3-(5-Fluoro-1H-Indol-3-Yl)Propyl]Piperazine]",183 to 189 °C,–,–,–
"Fc1ccc2[nH]cc(CCCN3CCN(c4ccccc4Oc4ccccc4)CC3)c2c1 [Compound 5f, 1-(2-Phenoxyphenyl)-4-[3-(5-fluoro-1H-indol-3-yl)propyl]piperazine]",–,10 nM,4.8 nM,–
"CCOc1cccc(Oc2ccccc2N2CCN(CCCc3c[nH]c4ccc(C)cc34)CC2)c1 [Compound 5ai, 1-[2-(3-Ethoxyphenoxy)phenyl]-4-[3-(5-methyl-1H-indol-3-yl)propyl]piperazine]",–,28 nM,–,34%
"Clc1ccc2c(CCCN3CCN(c4ccccc4Oc4ccc5c(c4)OCO5)CC3)c[nH]c2c1 (as salt: hydrochloride) [Compound 2c, 1-[2-(1,3-Benzodioxolan-5-Yloxy)Phenyl]-4-[3-(6-Chloro-1H-Indol-3-Yl)Propyl]Piperazine]",165 °C (dec.),–,–,–
"c1ccc(N2CCN(CCc3c[nH]c4ccccc34)CC2)c(Oc2ccc3c(c2)OCO3)c1 [Compound 1b, 1-[2-(1,3-Benzodioxolan-5-yloxy)phenyl]-4-[2-(1H-indol-3-yl)ethyl]piperazine]",–,7.8 nM,130 nM,–
"Clc1ccc2c(CCN3CCN(c4ccccc4Oc4ccc5c(c4)OCO5)CC3)c[nH]c2c1 [Compound 3e, 1-[2-(1,3-Benzodioxolan-5-yloxy)phenyl]-4-[2-(6-chloro-1H-indol-3-yl)ethyl]piperazine]",–,24 nM,–,40%
